Tests used:
chickweed = assay: Test B preemergence/postemergence greenhouse plant response rating 0 to 10; assay type: in vivo, Stellaria media; conditions: PREEMERGENCE
How it was run: (§1)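 Planted seeds are treated preemergence with compound dissolved in a non-phytotoxic solvent, while postemergence applications go onto plants of two to eighteen cm. Plants stay in the greenhouse twelve to sixteen days and are then rated visually relative to controls.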

duck salad = assay: Test C flood test plant response rating 0 to 100; assay type: in vivo, Heteranthera limosa; conditions: for Plant response rating Duck salad: flood test species listed under POSTEMERGENCE, 0 to 100 scale
How it was run: (§2)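 Compounds in non-phytotoxic solvent applied preemergence to sandy loam one day after planting, postemergence at the 1–4 leaf stage, or to ~2.5 cm floodwater over silt loam.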

corn [1] = assay: Test C preemergence/postemergence greenhouse plant response rating 0 to 100; assay type: in vivo, Zea mays; conditions: for Plant response rating, Corn: 0 to 100 scale
How it was run: as §2

barnyardgrass = assay: Test C flood test plant response rating 0 to 100; assay type: in vivo, Echinochloa crus-galli; conditions: for Plant response rating Barnyardgrass 2: flood test species listed under POSTEMERGENCE, 0 to 100 scale
How it was run: as §2

sugar beet = assay: Test B preemergence/postemergence greenhouse plant response rating 0 to 10; assay type: in vivo, Beta vulgaris; conditions: for Plant response rating, Sugar beet: 0 to 10 scale
How it was run: as §1

wild oat = assay: Test C preemergence/postemergence greenhouse plant response rating 0 to 100; assay type: in vivo, Avena fatua; conditions: for Plant response rating, Wild oat: 0 to 100 scale
How it was run: as §2

downy brome = assay: as above; assay type: in vivo, Bromus tectorum; conditions: for Plant response rating Downy Brome: 0 to 100 scale
How it was run: as §2

corn [2] = assay: Test B preemergence/postemergence greenhouse plant response rating 0 to 10; assay type: in vivo, Zea mays; conditions: for Plant response rating, Corn: 0 to 10 scale
How it was run: as §1

sorghum = assay: Test C preemergence/postemergence greenhouse plant response rating 0 to 100; assay type: in vivo, Sorghum bicolor; conditions: for Plant response rating, Sorghum: 0 to 100 scale
How it was run: as §2

giant foxtail = assay: as above; assay type: in vivo, Setaria faberii; conditions: POSTEMERGENCE, 0 to 100 scale
How it was run: as §2

[3] = POSTEMERGENCE section, flood test, Rate 4 g/ha
[4] = Rate 16 g/ha, under POSTEMERGENCE head (flood test species)

C#CC(C)Oc1cc(-c2nn3c(c2Br)CCCC3)c(F)cc1Cl (centres unmarked) [Compound 66]
Plant response rating, Chickweed (chickweed; Rate 50 g/ha, 0 to 10 scale): 4
Plant response rating (0 to 10 scale), Chickweed (chickweed; Rate 200 g/ha): 5
Plant response rating (0 to 100), Duck salad (duck salad; [3]): 0
Plant response rating (0 to 100), Duck salad (duck salad; [4]): 30
Plant response rating Duck salad (duck salad; 62 g/ha): 75
Plant response rating Duck salad (duck salad; 250 g/ha): 90
Plant response rating, Corn (corn [1]; POSTEMERGENCE, 62 g/ha): 40
Plant response rating, Corn (corn [1]; POSTEMERGENCE, 250 g/ha): 60
Plant response rating (0 to 100), Corn (corn [1]; POSTEMERGENCE, Rate 4 g/ha): 30
Plant response rating, Corn (corn [1]; PREEMERGENCE, 62 g/ha): 0
Plant response rating, Corn (corn [1]; PREEMERGENCE, 250 g/ha): 60
Plant response rating (0 to 100), Corn (corn [1]; PREEMERGENCE, Rate 4 g/ha): 0
Plant response rating (0 to 100), Corn (corn [1]; Rate 16 g/ha, POSTEMERGENCE): 30
Plant response rating (0 to 100), Corn (corn [1]; Rate 16 g/ha, PREEMERGENCE): 0
Plant response rating (0 to 100), Barnyardgrass 2 (barnyardgrass; [3]): 10
Plant response rating (0 to 100), Barnyardgrass 2 (barnyardgrass; [4]): 90
Plant response rating Barnyardgrass 2 (barnyardgrass; 62 g/ha): 100
Plant response rating Barnyardgrass 2 (barnyardgrass; 250 g/ha): 100
Plant response rating, Sugar beet (sugar beet; POSTEMERGENCE, Rate 50 g/ha): 10
Plant response rating, Sugar beet (sugar beet; PREEMERGENCE, Rate 50 g/ha): 8
Plant response rating (0 to 10 scale), Sugar beet (sugar beet; PREEMERGENCE, Rate 200 g/ha): 10
Plant response rating, Sugar beet (sugar beet; Rate 200 g/ha, POSTEMERGENCE): 10
Plant response rating, Wild oat (wild oat; POSTEMERGENCE, 62 g/ha): 50
Plant response rating, Wild oat (wild oat; POSTEMERGENCE, 250 g/ha): 60
Plant response rating (0 to 100), Wild oat (wild oat; POSTEMERGENCE, Rate 4 g/ha): 10
Plant response rating, Wild oat (wild oat; PREEMERGENCE, 250 g/ha): 30
Plant response rating (0 to 100), Wild oat (wild oat; PREEMERGENCE, Rate 4 g/ha): 0
Plant response rating (0 to 100), Wild oat (wild oat; Rate 16 g/ha, POSTEMERGENCE): 20
Plant response rating (0 to 100), Wild oat (wild oat; Rate 16 g/ha, PREEMERGENCE): 0
Plant response rating Downy Brome (downy brome; POSTEMERGENCE, 62 g/ha): 60
Plant response rating Downy Brome (downy brome; POSTEMERGENCE, 250 g/ha): 80
Plant response rating (0 to 100), Downy Brome (downy brome; POSTEMERGENCE, Rate 4 g/ha): 20
Plant response rating Downy Brome (downy brome; PREEMERGENCE, 62 g/ha): 30
Plant response rating Downy Brome (downy brome; PREEMERGENCE, 250 g/ha): 70
Plant response rating (0 to 100), Downy Brome (downy brome; PREEMERGENCE, Rate 4 g/ha): 0
Plant response rating (0 to 100), Downy Brome (downy brome; Rate 16 g/ha, POSTEMERGENCE): 40
Plant response rating (0 to 100), Downy Brome (downy brome; Rate 16 g/ha, PREEMERGENCE): 0
Plant response rating, Corn (corn [2]; POSTEMERGENCE, Rate 50 g/ha): 3
Plant response rating, Corn (corn [2]; PREEMERGENCE, Rate 50 g/ha): 0
Plant response rating (0 to 10 scale), Corn (corn [2]; PREEMERGENCE, Rate 200 g/ha): 0
Plant response rating, Corn (corn [2]; Rate 200 g/ha, POSTEMERGENCE): 3
Plant response rating, Sorghum (sorghum; POSTEMERGENCE, 62 g/ha): 50
Plant response rating, Sorghum (sorghum; POSTEMERGENCE, 250 g/ha): 60
Plant response rating (0 to 100), Sorghum (sorghum; POSTEMERGENCE, Rate 4 g/ha): 30
Plant response rating, Sorghum (sorghum; PREEMERGENCE, 250 g/ha): 30
Plant response rating (0 to 100), Sorghum (sorghum; PREEMERGENCE, Rate 4 g/ha): 0
Plant response rating (0 to 100), Sorghum (sorghum; Rate 16 g/ha, POSTEMERGENCE): 40
Plant response rating (0 to 100), Sorghum (sorghum; Rate 16 g/ha, PREEMERGENCE): 0
Plant response rating, Giant foxtail (giant foxtail; 62 g/ha): 70
Plant response rating, Giant foxtail (giant foxtail; 250 g/ha): 90
